# Reference: ChEMBL document CHEMBL1151757, “Synthesis, radiosynthesis, and biological evaluation of fluorine-18-labeled 2beta-carbo(fluoroalkoxy)-3beta-(3'-((Z)-2-haloethenyl)phenyl)nortropanes: candidate radioligands for in vivo imaging of the serotonin transporter with positron emission tomography” (J Med Chem, 2008)
# Tests used:
# [1] = Drug uptake in anesthetized cynomolgus monkey brain occipital lobe after 12.5 mins postinjection; format: ADME, organism-based, Macaca fascicularis; conditions: in vivo
# [2] = Drug uptake in anesthetized cynomolgus monkey brain frontal lobe after 135 mins postinjection; format: ADME, organism-based, Macaca fascicularis; conditions: in vivo, 2.25 h
# [3] = Drug uptake in anesthetized cynomolgus monkey brain occipital lobe after 185 mins postinjection; format: ADME, organism-based, Macaca fascicularis; conditions: in vivo
# [4] = Drug uptake in anesthetized cynomolgus monkey brain cerebellum after 185 mins postinjection; format: ADME, organism-based, Macaca fascicularis; conditions: in vivo
# [5] = Drug uptake in anesthetized cynomolgus monkey brain frontal lobe after 205 mins postinjection; format: ADME, organism-based, Macaca fascicularis; conditions: in vivo
# [6] = Ratio of drug uptake in caudate to cerebellum in anesthetized cynomolgus monkey after 185 mins postinjection; format: ADME, organism-based, Macaca fascicularis; conditions: in vivo
# [7] = Ratio of drug uptake in caudate to cerebellum in anesthetized cynomolgus monkey after 195 mins postinjection; format: ADME, organism-based, Macaca fascicularis; conditions: in vivo, 3.25 h
# [8] = Drug uptake in anesthetized cynomolgus monkey brain cerebellum after 55 mins postinjection; format: ADME, organism-based, Macaca fascicularis; conditions: in vivo
# [9] = Drug uptake in anesthetized cynomolgus monkey brain cerebellum after 105 mins postinjection; format: ADME, organism-based, Macaca fascicularis; conditions: in vivo, 1.75 h
# [10] = Drug uptake in anesthetized cynomolgus monkey brain cerebellum after 125 mins postinjection; format: ADME, organism-based, Macaca fascicularis; conditions: in vivo
# [11] = Drug uptake in anesthetized cynomolgus monkey brain cerebellum after 145 mins postinjection; format: ADME, organism-based, Macaca fascicularis; conditions: in vivo
# [12] = Drug uptake in anesthetized cynomolgus monkey brain occipital lobe after 197.5 mins postinjection; format: ADME, organism-based, Macaca fascicularis; conditions: in vivo
# [13] = Drug uptake in anesthetized cynomolgus monkey brain occipital lobe after 202.5 mins postinjection; format: ADME, organism-based, Macaca fascicularis; conditions: in vivo, 3.375 h
# [14] = Drug uptake in anesthetized cynomolgus monkey brain frontal lobe after 187.5 mins postinjection; format: ADME, organism-based, Macaca fascicularis; conditions: in vivo, 3.125 h
# Putamen [15] = assay: Drug uptake in anesthetized cynomolgus monkey brain putamen after 182.5 mins postinjection; format: ADME, organism-based, Macaca fascicularis; conditions: in vivo
# Putamen [16] = assay: Drug uptake in anesthetized cynomolgus monkey brain putamen after 202.5 mins postinjection; format: ADME, organism-based, Macaca fascicularis; conditions: in vivo, 3.375 h
# [17] = Drug uptake in awake rhesus monkey brain frontal lobe after 13.5 mins postinjection; format: ADME, organism-based, Macaca mulatta; conditions: in vivo, 0.225 h
# [18] = Drug uptake in awake rhesus monkey brain frontal lobe after 65 mins postinjection; format: ADME, organism-based, Macaca mulatta; conditions: in vivo
# [19] = Drug uptake in awake rhesus monkey brain frontal lobe after 75 mins postinjection; format: ADME, organism-based, Macaca mulatta; conditions: in vivo, 1.25 h
# [20] = Drug uptake in awake rhesus monkey brain medulla after 10.5 mins postinjection; format: ADME, organism-based, Macaca mulatta; conditions: in vivo, 0.175 h
# Midbrain [21] = assay: Drug uptake in anesthetized cynomolgus monkey brain midbrain after 187.5 mins postinjection; format: ADME, organism-based, Macaca fascicularis; conditions: in vivo, 3.125 h
# Midbrain [22] = assay: Drug uptake in anesthetized cynomolgus monkey brain midbrain after 192.5 mins postinjection; format: ADME, organism-based, Macaca fascicularis; conditions: in vivo
# Midbrain [23] = assay: Drug uptake in anesthetized cynomolgus monkey brain midbrain after 197.5 mins postinjection; format: ADME, organism-based, Macaca fascicularis; conditions: in vivo
# Midbrain [24] = assay: Drug uptake in anesthetized cynomolgus monkey brain midbrain after 202.5 mins postinjection; format: ADME, organism-based, Macaca fascicularis; conditions: in vivo, 3.375 h
# Midbrain [25] = assay: Drug uptake in anesthetized cynomolgus monkey brain midbrain after 207.5 mins postinjection; format: ADME, organism-based, Macaca fascicularis; conditions: in vivo
# [26] = Drug uptake in awake rhesus monkey brain medulla after 35 mins postinjection; format: ADME, organism-based, Macaca mulatta; conditions: in vivo
# [27] = Drug uptake in awake rhesus monkey brain medulla after 55 mins postinjection; format: ADME, organism-based, Macaca mulatta; conditions: in vivo
# [28] = Drug uptake in awake rhesus monkey brain medulla after 65 mins postinjection; format: ADME, organism-based, Macaca mulatta; conditions: in vivo
# [29] = Drug uptake in awake rhesus monkey brain medulla after 85 mins postinjection; format: ADME, organism-based, Macaca mulatta; conditions: in vivo
# [30] = Drug uptake in awake rhesus monkey brain medulla after 115 mins postinjection; format: ADME, organism-based, Macaca mulatta; conditions: in vivo
# [31] = Drug uptake in awake rhesus monkey brain midbrain after 35 mins postinjection; format: ADME, organism-based, Macaca mulatta; conditions: in vivo
# [32] = Drug uptake in awake rhesus monkey brain midbrain after 55 mins postinjection; format: ADME, organism-based, Macaca mulatta; conditions: in vivo
# [33] = Drug uptake in awake rhesus monkey brain midbrain after 85 mins postinjection; format: ADME, organism-based, Macaca mulatta; conditions: in vivo
# Pons [34] = assay: Drug uptake in anesthetized cynomolgus monkey brain pons after 182.5 mins postinjection; format: ADME, organism-based, Macaca fascicularis; conditions: in vivo
# Pons [35] = assay: Drug uptake in anesthetized cynomolgus monkey brain pons after 187.5 mins postinjection; format: ADME, organism-based, Macaca fascicularis; conditions: in vivo, 3.125 h
# Pons [36] = assay: Drug uptake in anesthetized cynomolgus monkey brain pons after 197.5 mins postinjection; format: ADME, organism-based, Macaca fascicularis; conditions: in vivo
# Pons [37] = assay: Drug uptake in anesthetized cynomolgus monkey brain pons after 202.5 mins postinjection; format: ADME, organism-based, Macaca fascicularis; conditions: in vivo, 3.375 h
# Pons [38] = assay: Drug uptake in anesthetized cynomolgus monkey brain pons after 207.5 mins postinjection; format: ADME, organism-based, Macaca fascicularis; conditions: in vivo
# [39] = Ratio of drug uptake in putamen to cerebellum in awake rhesus monkey after 105 mins postinjection; format: ADME, organism-based, Macaca mulatta; conditions: in vivo, 1.75 h
# [40] = Ratio of drug uptake in thalamus to cerebellum in awake rhesus monkey after 17.5 mins postinjection; format: ADME, organism-based, Macaca mulatta; conditions: in vivo
# [41] = Drug uptake in awake rhesus monkey brain putamen after 75 mins postinjection; format: ADME, organism-based, Macaca mulatta; conditions: in vivo, 1.25 h
# [42] = Drug uptake in awake rhesus monkey brain putamen after 95 mins postinjection; format: ADME, organism-based, Macaca mulatta; conditions: in vivo
# [43] = Drug uptake in awake rhesus monkey brain caudate after 4.5 mins postinjection; format: ADME, organism-based, Macaca mulatta, Caudate nucleus; conditions: in vivo, 0.075 h
# [44] = Drug uptake in awake rhesus monkey brain caudate after 10.5 mins postinjection; format: ADME, organism-based, Macaca mulatta, Caudate nucleus; conditions: in vivo, 0.175 h
# [45] = Drug uptake in awake rhesus monkey brain caudate after 13.5 mins postinjection; format: ADME, organism-based, Macaca mulatta, Caudate nucleus; conditions: in vivo, 0.225 h
# [46] = Drug uptake in awake rhesus monkey brain caudate after 25 mins postinjection; format: ADME, organism-based, Macaca mulatta, Caudate nucleus; conditions: in vivo
# [47] = Drug uptake in awake rhesus monkey brain caudate after 55 mins postinjection; format: ADME, organism-based, Macaca mulatta, Caudate nucleus; conditions: in vivo
# [48] = Drug uptake in awake rhesus monkey brain caudate after 95 mins postinjection; format: ADME, organism-based, Macaca mulatta, Caudate nucleus; conditions: in vivo
# [49] = Drug uptake in awake rhesus monkey brain thalamus after 10.5 mins postinjection; format: ADME, organism-based, Macaca mulatta; conditions: in vivo, 0.175 h
# [50] = Ratio of drug uptake in pons to cerebellum in awake rhesus monkey after 10.5 mins postinjection; format: ADME, organism-based, Macaca mulatta; conditions: in vivo, 0.175 h
# Medulla [51] = assay: Drug uptake in anesthetized cynomolgus monkey brain medulla after 197.5 mins postinjection; format: ADME, organism-based, Macaca fascicularis; conditions: in vivo
# Medulla [52] = assay: Drug uptake in anesthetized cynomolgus monkey brain medulla after 207.5 mins postinjection; format: ADME, organism-based, Macaca fascicularis; conditions: in vivo
# [53] = Drug uptake in anesthetized cynomolgus monkey brain cerebellum after 197.5 mins postinjection; format: ADME, organism-based, Macaca fascicularis; conditions: in vivo
# [54] = Drug uptake in anesthetized cynomolgus monkey brain cerebellum after 202.5 mins postinjection; format: ADME, organism-based, Macaca fascicularis; conditions: in vivo, 3.375 h
# [55] = Drug uptake in anesthetized cynomolgus monkey brain cerebellum after 207.5 mins postinjection; format: ADME, organism-based, Macaca fascicularis; conditions: in vivo
# [56] = Drug uptake in awake rhesus monkey brain thalamus after 65 mins postinjection; format: ADME, organism-based, Macaca mulatta; conditions: in vivo
# [57] = Drug uptake in awake rhesus monkey brain thalamus after 95 mins postinjection; format: ADME, organism-based, Macaca mulatta; conditions: in vivo
# Caudate [58] = assay: Drug uptake in anesthetized cynomolgus monkey brain caudate after 182.5 mins postinjection; format: ADME, organism-based, Macaca fascicularis, Caudate nucleus; conditions: in vivo
# Caudate [59] = assay: Drug uptake in anesthetized cynomolgus monkey brain caudate after 187.5 mins postinjection; format: ADME, organism-based, Macaca fascicularis, Caudate nucleus; conditions: in vivo, 3.125 h
# Caudate [60] = assay: Drug uptake in anesthetized cynomolgus monkey brain caudate after 192.5 mins postinjection; format: ADME, organism-based, Macaca fascicularis, Caudate nucleus; conditions: in vivo
# Caudate [61] = assay: Drug uptake in anesthetized cynomolgus monkey brain caudate after 202.5 mins postinjection; format: ADME, organism-based, Macaca fascicularis, Caudate nucleus; conditions: in vivo, 3.375 h
# Caudate [62] = assay: Drug uptake in anesthetized cynomolgus monkey brain caudate after 207.5 mins postinjection; format: ADME, organism-based, Macaca fascicularis, Caudate nucleus; conditions: in vivo
# [63] = Ratio of drug uptake in frontal lobe to cerebellum in awake rhesus monkey after 35 mins postinjection; format: ADME, organism-based, Macaca mulatta; conditions: in vivo
# [64] = Drug uptake in awake rhesus monkey brain cerebellum after 10.5 mins postinjection; format: ADME, organism-based, Macaca mulatta; conditions: in vivo, 0.175 h
# [65] = Drug uptake in awake rhesus monkey brain cerebellum after 25 mins postinjection; format: ADME, organism-based, Macaca mulatta; conditions: in vivo
# [66] = Ratio of drug uptake in midbrain to cerebellum in awake rhesus monkey after 85 mins postinjection; format: ADME, organism-based, Macaca mulatta; conditions: in vivo
# Thalamus [67] = assay: Drug uptake in anesthetized cynomolgus monkey brain thalamus after 182.5 mins postinjection; format: ADME, organism-based, Macaca fascicularis; conditions: in vivo
# Thalamus [68] = assay: Drug uptake in anesthetized cynomolgus monkey brain thalamus after 192.5 mins postinjection; format: ADME, organism-based, Macaca fascicularis; conditions: in vivo
# Thalamus [69] = assay: Drug uptake in anesthetized cynomolgus monkey brain thalamus after 202.5 mins postinjection; format: ADME, organism-based, Macaca fascicularis; conditions: in vivo, 3.375 h
# Thalamus [70] = assay: Drug uptake in anesthetized cynomolgus monkey brain thalamus after 207.5 mins postinjection; format: ADME, organism-based, Macaca fascicularis; conditions: in vivo
compound,measurement,setting,value
O=C(OCCC[18F])C1C2CCC(CC1c1cccc(/C=C\I)c1)N2 (stereo unspecified),Drug uptake,[1],3.6
same,Drug uptake,[2],2.35
same,Drug uptake,[3],2.39
same,Drug uptake,[4],2.18
same,Drug uptake,[5],1.89
same,Ratio,[6],1.3
same,Ratio,[7],1.3
same,Drug uptake,[8],4.31
same,Drug uptake,[9],3.31
same,Drug uptake,[10],2.79
same,Drug uptake,[11],2.4
O=C(OCC[18F])C1C2CCC(CC1c1cccc(/C=C\I)c1)N2 (stereo unspecified),Drug uptake,[12],1.39
same,Drug uptake,[13],1.33
same,Drug uptake,[14],1.65
same,Drug uptake,Putamen [15],2.78
same,Drug uptake,Putamen [16],2.63
same,Drug uptake,[17],0.08
same,Drug uptake,[18],0.11
same,Drug uptake,[19],0.11
same,Drug uptake,[20],0.09
same,Drug uptake,Midbrain [21],3.37
same,Drug uptake,Midbrain [22],3.24
same,Drug uptake,Midbrain [23],3.2
same,Drug uptake,Midbrain [24],3.15
same,Drug uptake,Midbrain [25],3.17
same,Drug uptake,[26],0.12
same,Drug uptake,[27],0.12
same,Drug uptake,[28],0.12
same,Drug uptake,[29],0.11
same,Drug uptake,[30],0.11
same,Drug uptake,[31],0.14
same,Drug uptake,[32],0.16
same,Drug uptake,[33],0.16
same,Drug uptake,Pons [34],2.17
same,Drug uptake,Pons [35],2.31
same,Drug uptake,Pons [36],2.25
same,Drug uptake,Pons [37],2.25
same,Drug uptake,Pons [38],2.19
same,Ratio,[39],1.5
same,Ratio,[40],1.3
same,Drug uptake,[41],0.17
same,Drug uptake,[42],0.16
same,Drug uptake,[43],0.06
same,Drug uptake,[44],0.1
same,Drug uptake,[45],0.09
same,Drug uptake,[46],0.13
same,Drug uptake,[47],0.15
same,Drug uptake,[48],0.14
same,Drug uptake,[49],0.12
same,Ratio,[50],0.9
same,Drug uptake,Medulla [51],2.51
same,Drug uptake,Medulla [52],2.5
same,Drug uptake,[53],1.41
same,Drug uptake,[54],1.43
same,Drug uptake,[55],1.4
same,Drug uptake,[56],0.17
same,Drug uptake,[57],0.16
same,Drug uptake,Caudate [58],2.31
same,Drug uptake,Caudate [59],2.26
same,Drug uptake,Caudate [60],2.28
same,Drug uptake,Caudate [61],2.21
same,Drug uptake,Caudate [62],2.16
same,Ratio,[63],1
same,Drug uptake,[64],0.08
same,Drug uptake,[65],0.11
same,Ratio,[66],1.6
same,Drug uptake,Thalamus [67],2.74
same,Drug uptake,Thalamus [68],2.56
same,Drug uptake,Thalamus [69],2.52
same,Drug uptake,Thalamus [70],2.43
O=C(OCC[18F])C1C2CCC(CC1c1cccc(/C=C\Br)c1)N2 (stereo unspecified),Drug uptake,[1],2.68
same,Drug uptake,[2],2.56
same,Drug uptake,[3],2.37
same,Drug uptake,[4],1.86
same,Drug uptake,[5],1.98
same,Ratio,[6],1.8
same,Ratio,[7],1.7
same,Drug uptake,[8],3.61
same,Drug uptake,[9],2.87
same,Drug uptake,[10],2.68
same,Drug uptake,[11],2.35
